This note sets out measurements from patent US20250280861A1, “SWEETENER COMPOSITIONS” (Firmenich Incorporated, priority 2022, published 2025).

As usually defined, the EC50 is the concentration needed to bring the measured effect to its halfway point.

Molecules are shown by their SMILES.

The target in this experiment is T1, hT1R2/T1R3 taste receptor (Homo sapiens, UniProt Q7RTX0+Q8TE23).
T1 sequence (Q8TE23 20-839): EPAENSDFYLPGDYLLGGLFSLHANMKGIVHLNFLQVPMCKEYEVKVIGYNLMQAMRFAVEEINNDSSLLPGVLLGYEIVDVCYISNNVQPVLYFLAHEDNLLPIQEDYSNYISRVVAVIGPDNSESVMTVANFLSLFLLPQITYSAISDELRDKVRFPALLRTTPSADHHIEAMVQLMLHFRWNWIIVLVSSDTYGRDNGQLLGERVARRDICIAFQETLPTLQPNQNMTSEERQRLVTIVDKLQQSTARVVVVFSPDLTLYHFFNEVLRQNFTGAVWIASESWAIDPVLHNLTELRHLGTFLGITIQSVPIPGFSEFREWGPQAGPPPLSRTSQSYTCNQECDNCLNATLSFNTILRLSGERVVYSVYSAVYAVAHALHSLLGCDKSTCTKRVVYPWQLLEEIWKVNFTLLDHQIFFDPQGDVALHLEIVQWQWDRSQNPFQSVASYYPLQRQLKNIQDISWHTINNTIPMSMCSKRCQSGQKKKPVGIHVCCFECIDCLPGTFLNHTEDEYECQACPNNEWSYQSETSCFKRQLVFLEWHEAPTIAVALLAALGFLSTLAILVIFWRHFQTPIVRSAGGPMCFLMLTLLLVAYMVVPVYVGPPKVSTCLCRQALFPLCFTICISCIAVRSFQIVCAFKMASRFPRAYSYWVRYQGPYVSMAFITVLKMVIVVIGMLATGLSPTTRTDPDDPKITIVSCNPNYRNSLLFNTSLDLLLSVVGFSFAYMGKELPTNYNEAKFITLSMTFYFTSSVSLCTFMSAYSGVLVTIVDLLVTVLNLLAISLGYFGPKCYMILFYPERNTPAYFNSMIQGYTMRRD
T1 sequence (Q7RTX0 21-852): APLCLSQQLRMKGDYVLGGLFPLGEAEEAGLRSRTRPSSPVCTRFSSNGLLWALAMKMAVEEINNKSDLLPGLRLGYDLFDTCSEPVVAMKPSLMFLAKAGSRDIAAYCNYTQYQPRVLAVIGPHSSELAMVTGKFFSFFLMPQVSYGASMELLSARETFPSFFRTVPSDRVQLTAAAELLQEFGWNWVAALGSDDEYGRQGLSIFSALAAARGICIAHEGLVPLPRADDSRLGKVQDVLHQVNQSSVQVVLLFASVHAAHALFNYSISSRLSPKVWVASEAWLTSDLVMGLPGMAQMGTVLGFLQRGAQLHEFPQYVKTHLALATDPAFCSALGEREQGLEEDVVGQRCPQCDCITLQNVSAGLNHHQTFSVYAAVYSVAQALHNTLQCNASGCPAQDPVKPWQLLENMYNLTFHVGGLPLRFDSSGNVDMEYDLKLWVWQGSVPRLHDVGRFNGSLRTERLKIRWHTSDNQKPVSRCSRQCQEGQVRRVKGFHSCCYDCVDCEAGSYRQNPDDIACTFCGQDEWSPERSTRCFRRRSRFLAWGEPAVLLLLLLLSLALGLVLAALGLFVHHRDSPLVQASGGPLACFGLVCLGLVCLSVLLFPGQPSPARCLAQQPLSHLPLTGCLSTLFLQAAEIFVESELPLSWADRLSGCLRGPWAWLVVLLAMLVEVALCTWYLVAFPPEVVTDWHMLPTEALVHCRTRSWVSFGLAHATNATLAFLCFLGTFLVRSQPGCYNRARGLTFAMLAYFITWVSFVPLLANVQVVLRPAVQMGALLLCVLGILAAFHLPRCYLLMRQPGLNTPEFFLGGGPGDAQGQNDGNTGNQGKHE
Briefly: agonist activity against the hT1R2/T1R3 taste receptor (sweet receptor based assay). In kind it is cell-based. The conditions noted are these: agonist activity, hT1R2/T1R3; read-out: Sweet EC50. Here is the method: Compounds described in this application show moderate to potent agonist effect on the sweet receptor based assay. Potencies (EC50 values, e.g. see Tables 1-3) for agonist activity were measured against the hT1R2/T1R3 taste receptor. FIG. 1 exemplifies the data generated during the screening to determine EC50 values.
In the case of `Cc1cccc(N2CCN(C(C)(C)C(=O)NC3CC3)CC2)c1C` [Compound 1, N-cyclopropyl-2-(4-(2,3-dimethylphenyl)piperazin-1-yl)-2-methylpropanamide], the EC50 amounted to 4.3 µM. Turning to `CC(C)CNC(=O)C(C)(C)N1CCN(c2ccccc2F)CC1` [Compound 2, 2-(4-(2-fluorophenyl)piperazin-1-yl)-N-isobutyl-2-methylpropanamide], the EC50 turned out to be 6.8 µM. Regarding `CC(C)CNC(=O)C(C)(C)N1CCN(c2cccc(F)c2F)CC1` [Compound 3, 2-(4-(2,3-difluorophenyl)piperazin-1-yl)-N-isobutyl-2-methylpropanamide], the EC50 was 1.6 µM.

As for `COCc1cccc(N2CCN(C(C)(C)C(=O)NCC(C)C)CC2)c1F` [Compound 4, 2-(4-(2-fluoro-3-(methoxymethyl)phenyl)piperazin-1-yl)-N-isobutyl-2-methylpropanamide], the EC50 is 2.1 µM. The figure for `COCc1c(F)cccc1N1CCN(C(C)(C)C(=O)NCC(C)C)CC1` [Compound 5, 2-(4-(3-fluoro-2-(methoxymethyl)phenyl)piperazin-1-yl)-N-isobutyl-2-methylpropanamide] is 2.1 µM; for `CC(C)CNC(=O)C(C)(C)N1CCN(c2ccccc2CO)CC1` [Compound 6] it is over 10 µM. The figure for `COC(=O)c1c(F)cccc1N1CCN(C(C)(C)C(=O)NCC(C)C)CC1` [Compound 7, Methyl 2-fluoro-6-(4-(1-(isobutylamino)-2-methyl-1-oxopropan-2-yl)piperazin-1-yl)benzoate] is 11.5 µM; for `CCNC(=O)C(C)(C)N1CCN(c2cccc(C)c2C)CC1` [Compound 8] it is over 10 µM; for `CCCNC(=O)C(C)(C)N1CCN(c2cccc(C)c2C)CC1` [Compound 9] it is 4.2 µM. With `Cc1cccc(N2CCN(C(C)(C)C(=O)NCC(C)C)CC2)c1C` [Compound 10], the EC50 came out at 2.8 µM. As for `Cc1cccc(N2CCN(C(C)C(=O)NCC(C)C)CC2)c1C` (stereo not drawn) [Compound 11], the EC50 worked out at 1.4 µM. For `Cc1cccc(N2CCN(CC(=O)NCC(C)C)CC2)c1C` [Compound 12], the EC50 is 9.7 µM. The figure for `Cc1cccc(N2CCN(C(C)(C)C(=O)NC3CCCCC3)CC2)c1C` [Compound 13] is 9.4 µM; for `Cc1cccc(N2CCN(C(C)(C)C(=O)NCC3CC3)CC2)c1C` [Compound 14] it is 5 µM; for `Cc1cccc(N2CCN(C(C)(C)C(=O)NCC3CCCC3)CC2)c1C` [Compound 15] it is 6.9 µM. The figure for `Cc1cccc(N2CCN(C(C)(C)C(=O)NCC3CCCCC3)CC2)c1C` [Compound 16] is over 10 µM. In the case of `Cc1cccc(N2CCN(C(C)(C)C(=O)NCC3CCCCCC3)CC2)c1C` [Compound 17], the 50% effective concentration (EC50) is over 10 µM. The value for `Cc1cccc(N2CCN(C(C)(C)C(=O)NCC(C)(C)C)CC2)c1C` [Compound 18] was over 10 µM; that for `CCC(C)(C)NC(=O)C(C)(C)N1CCN(c2cccc(C)c2C)CC1` [Compound 19] was over 10 µM; that for `CCC(CC)NC(=O)C(C)(C)N1CCN(c2cccc(C)c2C)CC1` [Compound 20] was 5.6 µM. The value for `CCC(CC)CNC(=O)C(C)(C)N1CCN(c2cccc(C)c2C)CC1` [Compound 21] was over 10 µM. For the compound `COCCNC(=O)C(C)(C)N1CCN(c2cccc(C)c2C)CC1` [Compound 22], the concentration for a half-maximal effect (EC50) was over 10 µM. Consider `Cc1cccc(N2CCN(C(C)(C)C(=O)NCCN(C)C)CC2)c1C` [Compound 23], for which the EC50 was over 10 µM. `Cc1cccc(N2CCN(C(C)(C)C(=O)NC(C)(C)CO)CC2)c1C` [Compound 24]: the concentration giving a half-maximal response (EC50) was over 10 µM. The figure for `Cc1cccc(N2CCN(C(C)(C)C(=O)NCC(C)(C)O)CC2)c1C` [Compound 25] is over 10 µM. The value for `Cc1cccc(N2CCN(C(C)(C)C(=O)NCCC(C)C)CC2)c1C` [Compound 26] was 8 µM. As to `Cc1cccc(N2CCN(C(C)(C)C(=O)NCCc3ccccc3)CC2)c1C` [Compound 27], the EC50 was over 10 µM. The figure for `Cc1cccc(N2CCN(C(C)C(=O)NCC(C)C)CC2)c1C` (stereo not drawn) [Compound 29] is 1.4 µM; for `Cc1cccc(N2CCN(CC(=O)NC3CC3)CC2)c1C` [Compound 31] it is over 10 µM; for `Cc1cccc(N2CCN(C(C)C(=O)NC3CC3)CC2)c1C` (stereo not drawn) [Compound 32] it is over 10 µM. The value for `CC(C)(C(=O)NC1CC1)N1CCN(c2cccc(F)c2F)CC1` [Compound 33] was 3.9 µM; that for `CC(C)CNC(=O)C(C)(C)N1CCN(c2ccccc2)CC1` [Compound 34] was over 10 µM; that for `CC(C)CNC(=O)C(C)(C)N1CCN(c2cccc(CO)c2F)CC1` [Compound 35] was over 10 µM.

For `Cc1cccc(N2CCN(C(C)(C)C(=O)NCC(C)C)CC2)c1F` [Compound 36], the EC50 was found to be 2.4 µM. The value for `CC(C)CNC(=O)C(C)(C)N1CCN(c2ccc(F)cc2F)CC1` [Compound 37] was over 10 µM. The value for `Cc1ccc(C)c(N2CCN(C(C)(C)C(=O)NCC(C)C)CC2)c1` [Compound 38] was over 10 µM; that for `CC(C)CNC(=O)C(C)(C)N1CCN(c2cc(F)ccc2F)CC1` [Compound 39] was over 10 µM. `Cc1cccc(C)c1N1CCN(C(C)(C)C(=O)NCC(C)C)CC1` [Compound 40]: the EC50 is over 10 µM. The value for `Cc1cccnc1N1CCN(C(C)(C)C(=O)NCC(C)C)CC1` [Compound 41] was over 10 µM; that for `CC(C)CNC(=O)C(C)(C)N1CCN(c2c(F)cccc2F)CC1` [Compound 42] was over 10 µM; that for `Cc1cccc(N2CCN(C(C)(C)C(=O)NCC(C)C)CC2)c1` [Compound 43] was over 10 µM. The figure for `CC(C)CNC(=O)C(C)(C)N1CCN(c2cccc(F)c2)CC1` [Compound 44] is over 10 µM; for `COCc1cccc(N2CCN(C(C)(C)C(=O)NCC(C)C)CC2)c1` [Compound 45] it is over 10 µM. The value for `Cc1ccccc1N1CCN(C(C)(C)C(=O)NCC(C)C)CC1` [Compound 46] was 4.3 µM. With `COCc1ccccc1N1CCN(C(C)(C)C(=O)NCC(C)C)CC1` [Compound 47], the EC50 is 6.8 µM. The value for `CC(C)CNC(=O)C(C)(C)N1CCN(c2ccccc2C#N)CC1` [Compound 48] was over 10 µM.

Regarding `COC(=O)c1ccccc1N1CCN(C(C)(C)C(=O)NCC(C)C)CC1` [Compound 49], the EC50 is over 10 µM.

On to `CC(C)CNC(=O)C(C)(C)N1CCN(c2ccccc2C(F)(F)F)CC1` [Compound 50], for which the EC50 is over 10 µM. The figure for `CC(C)CNC(=O)C(C)(C)N1CCN(c2cccc(F)c2CO)CC1` [Compound 51, 2-(4-(3-fluoro-2-(hydroxymethyl)phenyl)piperazin-1-yl)-N-isobutyl-2-methylpropanamide] is over 10 µM. The value for `COc1ccccc1N1CCN(C(C)(C)C(=O)NCC(C)C)CC1` [Compound 52] was over 10 µM; that for `CC(C)CNC(=O)C(C)(C)N1CCN(c2ccccn2)CC1` [Compound 53] was over 10 µM. In the case of `CC(C)CNC(=O)C(C)(C)N1CCN(c2cnccn2)CC1` [Compound 54], the EC50 was over 10 µM. `COCc1cccc(C2=CCN(C(COC)C(=O)NCC(C)C)CC2)c1F` (stereo not drawn) [Compound 55, 2-(4-(2-fluoro-3-(methoxymethyl)phenyl)-3,6-dihydropyridin-1(2H)-yl)-N-isobutyl-3-methoxypropanamide]: the concentration giving a half-maximal response (EC50) is 1.4 µM. The value for `CC(C)CNC(=O)C(C)(C)N1CC=C(c2ccccc2)CC1` [Compound 56] was 3.3 µM.
